According to PubChem BioAssay AID179 (DTP/NCI, 2004):
Where “and” joins values, the source holds several entries; their conditions need not be identical. Identical values can stand only once. Calls of active or inactive are those of the source.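 The calls were made as follows: active = compounds giving half or more protection of infected cells from virus-caused growth loss, again on retest; inactive = the rest.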

Test system: CEM cells HIV-1 protection, formazan growth assay
Experiment: NCI AIDS Antiviral Assay
Settings: for IC50: measured here: growth of uninfected CEM cells
Outline: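 Human CEM cells, uninfected and HIV-1-infected, received five drug concentrations, and growth was read by soluble formazan assay. Compounds giving at least 50% protection were retested; reproducible 100% protection defined confirmed active.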

| Compound | EC50 [µM] | IC50 | outcome |
| --- | --- | --- | --- |
| COC1/C=C/OC2(C)Oc3c(C)c(O)c4c(O)c(c(/C=N/Nc5nc6c(N)ncnc6n5C5OC(CO)C(O)C5O)c(O)c4c3C2=O)NC(=O)C(C)=C/C=C/C(C)C(O)C(C)C(O)C(C)C(OC(C)=O)C1C (stereo not given) | > 200 | 158 µM |  |
| CC1=CC(C)=Nc2ccc(C)cc2N1 | > 200 | 195 µM |  |
| NCC1OC(OC2C(CO)OC(OC3C(O)C(N)CC(N)C3OC3OC(CO)C(O)CC3N)C2O)C(N)C(O)C1OC1OC(CO)C(O)C(O)C1O (stereo not given) |  |  | inactive |
| NC(CSSCC(N)C(=O)c1ccccc1)C(=O)c1ccccc1 (stereo not given) | > 200 | 9.77 µM |  |
| Cc1cc(=O)n2nc(CSc3n[nH]c(=S)s3)sc2n1 | > 200 | > 200 µM |  |
| Clc1ccc(-c2cn3c(nc4ccccc43)c(-c3ccccc3)n2)cc1 | > 200 | 72.4 µM |  |
| O=C(c1cccs1)N(C(=S)N1CCN(c2ccccc2)CC1)C1CCCCC1 | > 12.6 | > 12.6 µM |  |
| CN(c1ccc(Cl)cc1)S(=O)(=O)c1ccccc1[N+](=O)[O-] | > 200 | 24.5 µM |  |
| Clc1ccc(-n2cccc2)cc1 | > 200 | > 200 µM |  |
| O=C(O)CCc1nn2c(nc1=O)sc1ccc3ccccc3c12 | > 50.1 | > 50.1 µM |  |
| CCCCCCCCCCCCCCCC1(OC)C[N+](C)(C)CCO1 (stereo not given) | > 200 | 1 µM |  |
| O=[N+]([O-])c1cc(C(F)(F)F)cc2c1SC1=Nc3ccccc3CN12 |  |  | inactive |
| CC(CC(=O)c1ccccc1)C(Sc1ccccc1)(Sc1ccccc1)Sc1ccccc1 (stereo not given) | > 200 | > 100 µM |  |
| C=C(C)C1CC[C@]2(C(=O)O)CCC3(C)[C@H](CCC4[C@@]5(C)CC[C@H](OC6OC(CO)C(O)C6OC6OC(C)C(O)C(O)C6O)[C@@](C)(CO)C5CC[C@]43C)C12 (stereo not given in full) |  |  | inactive |
| O=C(NCCCN(CCCCN(CCCNC(=O)C(F)(F)F)Cc1ccc2ccccc2c1)Cc1ccc2ccccc2c1)C(F)(F)F |  |  | inactive |
| C=C[C@@]1(O)CCCC[C@@H]1CC(Sc1ccccc1)Sc1ccccc1 | > 200 | 19.5 µM |  |
| O=C1CC2C(CC3OC(=O)C4C3C23COC4(O)C(O)C3)c2occc21 (stereo not given) | > 200 | 3.24 µM |  |
| S=c1n(-c2ccc(Cl)cc2)c2nc3ccccc3nc(/c2=N\Nc2ccccc2)n1-c1ccc(Br)cc1 | > 61.7 | 31.6 µM |  |
| Nc1ccc2c(=S)c3ccccc3[nH]c2c1 |  |  | inactive |
| CCC(=O)CC(=O)CCC(=O)Nc1cc(C)ccc1C |  |  | inactive |
| O=[N+]([O-])c1ccc(OC2CC3C4C=CC3C2C4)c([N+](=O)[O-])c1 (stereo not given) | > 200 | > 200 µM |  |

| Compound | EC50 [µM] | IC50 | outcome |
| --- | --- | --- | --- |
| Oc1cccc2ccc(Br)nc12 | > 200 | 178 µM |  |
| COc1cc(N=Nc2ccccc2)cc(/C=N/NC(N)=S)c1[O-].[CH2-]/[N+](=C\c1cc(N=Nc2ccccc2)cc(OC)c1[O-])NC(N)=S.[O]=[Mo+2]=[O].[O]=[Mo]=[O] | > 38.9 | 5.25 µM |  |
| O=C(O)CC(NC(=O)Nc1ccc([N+](=O)[O-])cc1)C(=O)Nc1ccc([N+](=O)[O-])cc1 (stereo not given) | > 200 | > 200 µM |  |
| Oc1nc2nc[nH]n2c1N=Nc1ccccc1 | > 200 | > 200 µM |  |
| C[C@H]1S[C@H](c2c(F)cccc2F)n2c1nc1ccccc12 | > 200 | 33.9 µM |  |
| CC(=O)N1C(Nc2ccccc2)CCN1c1ccccc1 (stereo not given) | > 200 | 11.2 µM |  |
| COC1(C)CP(=O)(OC(C)C)CC(C)=C1Cl (stereo not given) | > 20 | 7.59 µM |  |
| CCN(CC)c1ccc(N=C2C=CC(=O)c3ncccc32)c(C)c1 | > 11.7 | > 11.7 µM |  |
| C(/C=C\c1ccccc1)=Nc1ccccc1 | > 34.7 | > 34.7 µM |  |
| COCC1OCCN1C (stereo not given) | > 200 | > 200 µM |  |
| Cc1nc2ccc(S(=O)(=O)Nc3ccccn3)cc2c(=O)n1NS(=O)(=O)c1ccccn1 | > 200 | > 200 µM |  |
| CC1=CP(=O)(c2ccccc2)CC1 (stereo not given) | 0.0631 | > 200 µM |  |
| Cc1cc2c(cc1Cl)SC(NN(C)C)=NS2(=O)=O | > 200 | 117 µM |  |
| Nc1c2ccccc2nc2ccc(C(=O)Nc3ccc(S(N)(=O)=O)cc3)cc12 | > 200 | > 200 µM |  |
| CSC1=Nc2ccccc2N=C(N2CCCC2)C1 | 4.47 | > 200 µM |  |
| C(=Nc1ccc(SSc2ccc(N=C=C(c3ccccc3)c3ccccc3)cc2)cc1)=C(c1ccccc1)c1ccccc1 | > 200 | > 200 µM |  |
| Cc1c2oc3c(C)ccc(C(=O)NC4C(=O)NC(C(C)C)C(=O)N5CCCC[C@H]5C(=O)N(C)CC(=O)N(C)[C@@H](C(C)C)C(=O)OC4C)c3nc-2c(C(=O)NC2C(=O)N[C@H](C(C)C)C(=O)N3CCCC[C@H]3C(=O)N(C)CC(=O)N(C)C(C(C)C)C(=O)OC2C)c(N)c1=O (stereo not given in full) | > 2 | 0.00331 µM |  |
| CC(=O)Oc1ccc(S(=O)(=O)c2ccc(OC(C)=O)cc2)cc1 | > 200 | 9.12 µM |  |
| COc1cc2c(cc1OC)C(C(CO)CO)N(CC(O)CCl)CC2 (stereo not given) | > 692 | > 692 µM |  |
| COc1cc2oc(-c3ccc(O)cc3)cc(=O)c2c(OC)c1O | > 200 | > 200 µM |  |
| CC1CN=C(N(C(=O)Nc2ccc(F)c(Cl)c2)c2ccccc2)S1 (stereo not given) |  |  | inactive |

| Compound | EC50 [µM] | IC50 | outcome |
| --- | --- | --- | --- |
| CSc1ncc2c(C#N)c3n(C)c4ccccc4n3c(=O)c2n1 | > 100 | > 100 µM |  |
| O=C1OC(CC(=O)c2ccc(Cl)c(Cl)c2)C(Cl)=C1Cl (stereo not given) | > 75.9 | > 75.9 µM |  |
| C=C1OC(OC)CC(N)C1O (stereo not given) |  |  | inactive |
| CN(C)CCNC(=O)Cc1ccccc1Nc1c(Cl)cccc1Cl | > 200 | 30.2 µM |  |
| O=c1c(Nc2ccccc2)cn(CCOc2ccccc2)c(=O)n1CCOc1ccccc1 | > 200 | > 200 µM |  |
| O=C1CCC(O)=C1O | > 2190 | > 2190 µM |  |
| O=Nc1c(O)cc(Nc2cccnc2)c2ccccc12 | 102 | 182 µM |  |
| N#CC(/C(=N/NC(=O)C(=O)NN)C(=O)Nc1nc([N+](=O)[O-])cs1)c1ccc(Cl)cc1 (stereo not given) | 95.5 | 209 µM |  |
| CC1CCCN2C(=O)CN(c3ccccc3)CC(=O)N12 (stereo not given) | > 200 | > 200 µM |  |
| OC1CN=C2c3ccccc3C(O)(c3ccc(Cl)cc3)N2C1 (stereo not given) | > 200 | 44.7 µM |  |
| COc1ccc(C23OCN(c4ccccc4)C2(c2ccc(OC)cc2)c2ccccc2N3C)cc1 (stereo not given) | > 200 | > 200 µM |  |
| COC(=O)c1cc(C(=CCCN)c2cc(Cl)c(OC)c(C(=O)OC)c2)cc(Cl)c1OC | > 200 | 8.71 µM |  |
| CCCNC(=O)Cn1c(C)cc2ccccc21 | > 200 | > 200 µM |  |
| Oc1cc(Cl)cc2cc(Cl)cnc12 |  |  | inactive |
| Nc1cnc2c(c1)c(=O)nc1n2CCS1 | > 200 | 117 µM |  |
| O=c1c(Cc2ccccc2)c(-c2ccccc2)[nH]n1C1=NCCN1 | > 200 | 19.1 µM |  |
| Cc1nc(C(N)=S)sc1C(=O)/C=C/c1c(O)ccc2ccccc12 | > 53.7 | 42.7 µM |  |
| CC[C@](O)(CC(=O)O[C@H]1C(=O)O[C@@H]2C[C@H]3C(C)=CC(=O)[C@@H](O)[C@]3(C)[C@H]3[C@@]4(O)OC[C@]32[C@@H]1[C@@H](C)[C@H]4O)C(C)C | > 0.2 | 0.00363 µM |  |
| O=C1/C(=C/c2ccc(O)cc2)CCc2ccc([N+](=O)[O-])cc21 | > 200 | 81.3 µM |  |
| CN(N)c1cn[nH]c(=O)c1Cl | > 200 | > 200 µM |  |
| O=C(Nc1ccc([N+](=O)[O-])cc1)N(c1ccccc1)c1cc(N2CCOCC2)ccn1 | > 200 | 39.8 µM |  |

| Compound | EC50 [µM] | IC50 | outcome |
| --- | --- | --- | --- |
| O=C(CCCN1CCC2(CC1)C(=O)NC(=O)N2c1ccccc1)c1ccc(F)cc1 | > 200 | > 200 µM |  |
| Cc1ccc2c(c1)C(=O)c1cc(C)cc(C(=O)O)c1-2 | > 200 | > 200 µM |  |
| CCOC(=O)C1C[C@@H](O)CN1C(=O)c1ccc2c(c1)OCCO2 (stereo not given in full) | > 200 | > 200 µM |  |
| CC(CCc1ccc2c(c1)c(=N)c1ccc(N)cc1n2O)CC(C)(C)C (stereo not given) |  |  | inactive |
| CC1(C)CC(=O)C(C(=O)C(=O)NC2=C(Cl)C(=O)c3ccccc3C2=O)C(=O)C1 | > 17.8 |  |  |
| CCOc1ccc(-c2coc3cc(C)c(OCC)c(C)c3c2=O)cc1 | > 200 | > 200 µM |  |
| C=CC[C@@H](N)C(=O)N(C)[C@@H](C)[C@@H](O)c1ccccc1 | > 200 | > 200 µM |  |
| Cc1nc2c(cc1C(=O)N/N=C/c1ccc([N+](=O)[O-])cc1)c(=O)n(C)c(=O)n2C | > 200 | > 200 µM |  |
| COC1=C(Br)C(=O)c2nc(C)ccc2C1=O |  |  | inactive |
| CCO/N=C\c1c2c(O)c3c(O)c(C)c4c(c3c1O)C(=O)C(C)(O/C=C\C(OC)C(C)C(OC(C)=O)C(C)C(O)C(C)C(O)C(C)/C=C\C=C(\C)C(=O)N2)O4 (stereo not given) | > 151 | 8.13 µM |  |
| COc1ccc(C=C(Cl)Cl)cc1OC | > 200 | > 200 µM |  |
| C[Se]CCC1OC[C@H]2O[C@@H](n3cc(C)c(=O)[nH]c3=O)C[C@H]2N1O (stereo not given in full) |  |  | active |
| Oc1cccc2nc3cc(CN4CCOCC4)c(CN4CCOCC4)cc3nc12 | > 18.2 | > 18.2 µM |  |
| CCCCCCCCNC(=O)/C(=C\c1ccc2c(c1)OCO2)NC(=O)c1ccccc1 | > 58.9 | 45.7 µM |  |
| O=S1(=O)OCCOS(=O)(=O)C1(I)I | > 550 | 123 µM |  |
| O=[N+]([O-])c1cccc[c]1[Sb](=[O])([OH])[OH] | > 200 | 7.41 µM |  |
| CCc1n[nH]c(CC)c1CCCCCCOc1ccc(OC)cc1Cl | > 200 | 9.77 µM and 10 µM |  |
| CCCCCCCCCCNCCSSCc1ccc(OC)cc1 | > 200 | 3.39 µM |  |
| O=C(O)CNC(=O)C(CSC(=O)OCC1c2ccccc2-c2ccccc21)NC(=O)CCC(NC(=O)OCC1c2ccccc2-c2ccccc21)C(=O)O (stereo not given) | > 200 | 107 µM |  |
| COc1ccc(Cn2nc(OCc3ccccc3)c3cc([N+](=O)[O-])ccc32)cc1 | > 200 | 25.1 µM |  |
| CCOP(=O)(OCC)/C(C#N)=C/c1ccc(OC)cc1 | > 316 | > 316 µM |  |
